*: point of attachment. CH2F = FC*
Legend:
[1] = system: 769-P cells; assay: Cell viability with paclitaxel (MTT), 769-P; format: cell-based, human; settings: peptide 20 µM combined with PXT 100 nM; versus PXT alone
Experimental: To evaluate the inhibitory properties of the peptides directly on the human renal cancer cells, we firstly assessed the impact of Ac-PLVE-FMK and Ac-VLPE-FMK on the cell viability of 769-P and A498 cells to determine the working concentrations for further experiments. […] Further experiments were performed using a concentration of 20 μM. To understand if the peptides could affect the activity of caspase proteases, we tested their effect on cell viability in combination with the chemotherapeutic paclitaxel (PXT) in both the cell lines. […] Next, we evaluated the effect of the peptides on renal cancer cell proteolytic activity against the fluorogenic probe Ac-PLVQ-AMC. In this case, 769-p and A498 cells were treated for 30 min with Ac-PLVE-FMK or Ac-VLPE-FMK and were then exposed for 10 min to the substrate Ac-PLVQ-AMC prior fluorescence microscopy analysis (Figure 3c,d).
The cell number was evaluated by counting viable cells using the MTT (3-(4,5-dimethylthiazol-2-yl)-2,5-diphenyltetrazolium bromide) colorimetric assay. A total of 2 × 10^4 cells/well were seeded on independent 96-well plates for each time point (0, 24, 48, and 72 h), with five replicates and treated with two inhibitors (2.5–250 μM). Then, 10 µL of the MTT reagent was added to each well, and cells were incubated for another 5 h. Next, the absorbance value was measured using a CLARIOstar® Plus plate reader (BMG Labtech, Ortenberg, Germany) at 490 nm. Triplicate wells were assayed, and S.D.s were determined.
Figure S3. Combined effect of PXT and the inhibitors on 769‐P proliferation: 769‐P cells were treated with 100 nM of PXT alone or in combination with 20 μM of Ac‐PLVE and Ac‐VLPE and cell proliferation was measured after 24, 48, and 72 h via MTT assay. Data represent the mean (± S.D.) of three independent experiments, each performed in triplicate.
Figure S4. Spheroids size and circularity: (a,b) size and circularity of 769‐P and (c,d) A498 cells upon treatment with Ac‐PLVE‐FMK and Ac‐VLPE‐FMK. Data represent the mean (± S.D.) of three independent experiments, each performed in triplicate. […]

[2] = system: 769-P cells (endolysosomal compartment); assay: LysoTracker red fluorescence, 769-P; format: cell-based, human; settings: 20 μM; 48 h; 75 nM LysoTracker red, 1 h, Ex/Em 570/600
Experimental: First, 1.5 × 10^4 769-P or A498 cells were seeded in 96-well plates in full medium. The day after the cells were treated with the peptides for 3 consecutive days to establish 24, 48, and 72 h groups of treatment. LysoTracker Red fluorescence intensity was measured via microplate reader following the protocols described in [75] and applying Ex/Em = 570/600. The cells were incubated with 75 nM of LysoTracker red for 1 h. […]
Figure S6. The effect of the peptide inhibitors on human 769‐P and A498 renal cancer cell on
lysosomes integrity. (a) 769‐P and (b) A498 cells were treated with increasing doses of Ac‐PLVE‐FMK
(red bars) and Ac‐VLPE‐FMK (blue bars) (2.5–250 μM). NR uptake was measured after 24, 48, and 72
h via MTT assay. (c) LysoTracker red evaluation in 769‐P and (d) A498 cells after 24, 48, and 72 h with
the inhibitors (20 μM). Data represent the mean (± S.D.) of at least three independent experiments,
each performed in triplicate. […]

With Ac-PLVE-CH2F [Ac-PLVE-FMK] the “Effect on cell viability in combination with PXT” value [1] was “no significant differences were observed” and the LysoTracker red fluorescence [2] was “slightly increasing”.

For Ac-VLPE-CH2F [Ac-VLPE-FMK], the “Effect on cell viability in combination with PXT” value [1] was “no significant differences were observed” and the LysoTracker red fluorescence [2] was “slightly increasing”.

Source: PMC7281206, “Cysteine Cathepsins Inhibition Affects Their Expression and Human Renal Cancer Cell Phenotype” (Cancers, 2020)
